According to article PMC8913318 (The Journal of Biological Chemistry, 2022):
“Also recorded” adds a separate entry of the source. Like-named read-outs stand apart in the source and are kept apart here.

Columns and labels:
[1] = tested on: P. aeruginosa; settings: exposure of P. aeruginosa to arachidonic acid; cited from earlier work
[2] = molecular target: T1, CYP168A1 (Pseudomonas aeruginosa, UniProt Q9I107); test: Ligand Kd determination by optical difference spectroscopy; format: binding; settings: for Δ absorbance maxima: 1 μM CYP168A1
T1 sequence (Q9I107 1-444): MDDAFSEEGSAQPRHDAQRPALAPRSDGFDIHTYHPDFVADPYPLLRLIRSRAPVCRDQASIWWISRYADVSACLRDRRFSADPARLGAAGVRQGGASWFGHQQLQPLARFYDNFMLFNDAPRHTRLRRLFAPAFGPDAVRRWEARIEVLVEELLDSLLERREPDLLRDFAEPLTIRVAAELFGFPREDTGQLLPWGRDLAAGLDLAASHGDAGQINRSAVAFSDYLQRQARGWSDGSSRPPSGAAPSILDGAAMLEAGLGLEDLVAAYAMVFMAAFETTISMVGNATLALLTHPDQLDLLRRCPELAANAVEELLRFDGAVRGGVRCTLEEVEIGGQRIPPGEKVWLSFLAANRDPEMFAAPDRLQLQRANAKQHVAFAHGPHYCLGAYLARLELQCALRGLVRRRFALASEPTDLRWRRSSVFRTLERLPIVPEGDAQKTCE

[3] = molecular target: T1, CYP168A1; settings: 19-HETE formation; substrate inhibition model
[4] = molecular target: T1, CYP168A1; test: biochemical; settings: Ki ± SE, substrate inhibition constant
[5] = molecular target: T1, CYP168A1; test: Recombinant CYP168A1 lauric acid in vitro metabolic assays; format: biochemical
[6] = ND = no spectral shift detected
[7] = lauric acid ω-1-hydroxylation, Hill fit (preferred model)

| Kd [2] [nM] | Δ absorbance maxima [2, 6] [AU] | SMILES | further results |
| --- | --- | --- | --- |
| 960 ± 70 | 0.058 | CCCCC/C=C\C/C=C\C/C=C\C/C=C\CCCC(=O)O [Arachidonic acid] | increase in the minimum inhibitory concentration (MIC) for polymyxin B [1]: eightfold increase; Vmax ± SE [3]: 220 pmol/min/nmol P450; Ki ([4]; 18-HETE formation): 16000 ± 8000 nM; Ki ([4]; 19-HETE formation): 13000 ± 8000 nM |
| 21000 ± 4000 | 0.016 | CCCCCCCCCC(=O)O [Decanoic acid] |  |
| 2500 ± 400 | 0.026 | Clc1ccc(COC(Cn2ccnc2)c2ccc(Cl)cc2Cl)cc1 (stereo not shown) [Econazole] |  |
|  | 0.013 | CCCCCCCCCCCC(=O)O [Lauric acid] | Kd ([2]; read-out: Kd ± SE, 1 μM CYP168A1, 100 mM potassium phosphate pH 7.4, one binding site model, ND = no spectral shift detected): 1900 ± 300 nM; proportion of lauric acid metabolized to the ω-hydroxyl derivative ([5]; LC-MS analysis, spinach redox partners and NADPH): < 5%; n, cooperativity value for the substrate binding ([5]; lauric acid ω-1-hydroxylation, Hill fit): 1.5; S50 ± SE [5, 7]: 34 ± 2 µM; Vmax ± SE [5, 7]: 0.12 ± 0.004 nmol/min/nmol P450; Vmax ± SE ([5]; lauric acid ω-1-hydroxylation, Michaelis-Menten fit): 0.14 ± 0.006 nmol/min/nmol P450; Km ([5]; read-out: Km ± SE, lauric acid ω-1-hydroxylation to 11-hydroxylauric acid, Michaelis-Menten fit): 46 ± 5 µM |
| 830 ± 150 | 0.048 | CCCCCCCCCCCCCC(=O)O [Myristic acid] |  |
| 370 ± 70 | 0.099 | CCCCCCCC/C=C\CCCCCCCC(=O)O [Oleic acid] |  |
| 210 ± 40 | 0.064 | CCCCCCCCCCCCCCCC(=O)O [Palmitic acid] |  |
| 330 ± 70 | 0.078 | CCCCCCCCCCCCCCCCCC(=O)O [Stearic acid] |  |
|  |  | CC(C)CCC[C@@H](C)[C@H]1CC[C@H]2[C@@H]3CC=C4C[C@@H](O)CC[C@]4(C)[C@H]3CC[C@]12C [cholesterol] | Spectral shift of the Soret band (difference spectrum type) ([2]; UV-visible titration of CYP168A1): no spectral changes; also recorded: did not exert any changes |

| SMILES | Kd [2] [nM] | Δ absorbance maxima [2, 6] [AU] | further results |
| --- | --- | --- | --- |
| Clc1ccccc1C(c1ccccc1)(c1ccccc1)n1ccnc1 [Clotrimazole] | 3000 ± 400 | 0.053 |  |
| Clc1ccc(COC(Cn2ccnc2)c2ccc(Cl)cc2Cl)c(Cl)c1 (stereo not shown) [Miconazole] | 880 ± 180 | 0.036 |  |
